{"source": "patent US20060270658A1", "about": "“Use of oxcarbazepine for the treatment of diabetic neuropathic pain and the improvement of sleep” (priority 2003, published 2006)", "key": {"[1]": {"test_system": "Patients suffering from diabetic neuropathic pain", "experiment": "Clinical study in human diabetic neuropathic pain patients (double-blind, placebo-controlled, 112 days)", "assay_type": "in vivo", "details": "1800 mg/day total dosage", "protocol": "FIG. 1 depicts the average VAS score (y-axis) during the last week of treatment of the clinical study described in Example 1. The darker area represents the scores obtained in the group of patients obtaining oxcarbazepine at a daily dosage of 1800 mg (N=68). The brighter area represents the score for the placebo group (N=76). FIG. 2 illustrates the average VAS score (y-axis) by week (x-axis) of the clinical study described in Example 1. The upper lines represents the score for the placebo group (N=76). The lower line represents the scores obtained in the group of patients obtaining oxcarbazepine at a daily dosage of 1800 mg (N=68). In a clinical study in a Caucasian patient population, a full double-blind treatment was conducted for a period of 112 days. Patients suffering from diabetic neuropathic pain obtained placebo or oxcarbazepine."}, "[2]": {"test_system": "patients with neuropathic pain of diabetic origin", "experiment": "Impact of oxcarbazepine on sleep in human diabetic neuropathic pain patients (daily sleep questionnaire)", "assay_type": "in vivo", "details": "up to 1800 mg/day; for Awaken from sleep, % days during double-blind phase, mean (SD): P 0.02 vs placebo", "protocol": "In a multicenter, placebo-controlled, double-blind, parallel-group study the efficacy of oxcarbazepine up to 1800 mg/day in patients with neuropathic pain of diabetic origin was evaluated. The study consisted of three phases: a pre-randomization screening phase (2 weeks); a double-blind treatment phase (18 weeks); and an open-label extension phase (52 weeks). The double-blind treatment phase was further divided into a titration period of 4 weeks, a maintenance period of 12 weeks, and a follow-up period of 2 weeks. Patients who met all inclusion criteria were randomized in a 1:1 ratio to receive either study medication or placebo during double-blind treatment (16 weeks). After randomization into the double-blind treatment phase, oxcarbazepine or placebo was initiated at 300 mg/day, and increased 3 days later to 300 mg twice a day (600 mg/day). After this, oxcarbazepine was titrated as tolerated up to a maximum target dose of 900 mg twice a day (1800 mg/day) in increments of 300 mg every 5 days over the 4-week titration period. During the remaining 12 weeks of the study (maintenance period), oxcarbazepine treatment remained at the dose reached by day 28. Patient response to the following three questions from the daily sleep questionnaire were used to assess disturbances of sleep over double-blind treatment: 1) Did your pain delay you in getting to sleep last night? 2) Did your pain awaken you from sleep more than one time last night? 3) Did you feel rested after sleep this morning?"}, "[3]": {"details": "difference did not achieve statistical significance"}}, "data": [{"compound": "NC(=O)N1c2ccccc2CC(=O)c2ccccc21", "note": "[Oxcarbazepine, 10-oxo-10, 11-dihydro-5H-dibenz[b,f]azepine-5-carboxamide]", "values": [{"measurement": "average Visual Analog Scale (VAS) for pain severity score during the last week of double-blind treatment, versus placebo", "setting": "[1]; Caucasian patient population, 112 days double-blind, p=0.0108", "result": "statistically significantly superior to placebo"}, {"measurement": "percentage of responders (those felt slightly, much, or very much improved)", "setting": "[1]; placebo group 39.7%, p=0.0003", "result": 73.2, "unit": "%"}, {"measurement": "Awaken from sleep, % days during double-blind phase, mean (SD)", "setting": "[2]; ITT population, n = 68", "result": "31 (29) % days"}, {"measurement": "Awaken from sleep, % days during double-blind phase, mean (SD)", "setting": "[2]; ITT population, n = 68, listed as oxcarbazepine", "result": 31, "unit": "% days"}, {"measurement": "Delayed getting to sleep, % days during double-blind phase, mean (SD)", "setting": "[2]; ITT population, n = 68, P 0.09 vs placebo", "result": "28 (31) % days"}, {"measurement": "Felt rested after sleep, % days during double-blind phase, mean (SD)", "setting": "[2]; ITT population, n = 68, P 0.17 vs placebo", "result": "55 (34) % days"}, {"measurement": "proportion of patients experiencing delays in getting to sleep, in comparison with placebo", "setting": "[2]; [3]", "result": "lower proportion"}, {"measurement": "proportion of patients who felt rested after sleep, in comparison with placebo", "setting": "[2]; [3]", "result": "greater proportion"}]}]}
